# Experiments:
# [1] = system: S. aureus Newbould 305 strain; experiment: Mouse mastitis model of S. aureus infection; assay type: in vivo, Staphylococcus aureus
# Method: A mouse mastitis model of S. aurreus infection using the S. aureus Newbould 305 strain (Brouillette et al., 2003, 2004a and 2004b) was used to show the effectiveness of treatment with c-di-GMP. Three mice per group and two glands per mouse were used for a total of six samples per treatment. 100 CFU (colony forming units) of S. aureus Newbould 305 strain were inoculated into each mammary gland. Five or 50 nanomoles of c-di-GMP was administered by injection twice into each mammary gland at 0 hr. (pre-mixed with the S. aureus inoculum in 100 μl volume, i.e., 50 or 500 μM concentration) and at 4 hr. post-infection (in 50 μl, i.e., 100 or 1000 μM). The mammary glands were harvested at 10 hrs. post-infection. Considering the volume of the mammary gland with milk to be about 250 μl, the final concentration of c-di-GMP in the mammary gland at each injection was estimated to be 20 μM or 200 μM.
# S. aureus DK825 [2] = experiment: Coagulase production (bound or free); assay type: cell-based, Staphylococcus aureus
# S. aureus DK825 [3] = experiment: Effect on growth rate and cell count of S. aureus; assay type: cell-based, Staphylococcus aureus
# Method: Effect on growth rate of S. aureus. S. aureus DK825 was subcultured from glycerol stocks onto a blood agar plate and incubated at 37° C. for 18 h. A single colony was then inoculated into 5 ml TSB broth (supplemented with 0.25% glucose) and incubated at 37° C. for 24 h with shaking at 250 rpm. From a 10^−3 dilution of the overnight culture a 100 μl aliquot was inoculated into tubes containing 5 ml TSB broth resulting in an initial cell count of […] (confirmed by plating). For “treated” samples, an appropriate aliquot of c-di-GMP was added to give 200 μM c-di-GMP (final concentration). As a negative “untreated” control, tubes containing TSB and a similar volume of 0.9% NaCl were included in the studies. At time zero, 50 μl from each sample was plated on blood agar plates to determine the initial cfu/ml. […]
# V. cholerae N16961 = experiment: Crystal violet quantitative biofilm assay in glass test tubes; assay type: cell-based, Vibrio cholerae
# [4] = assay type: physicochemical
# Method: c-di-GMP, CGMP and 5′-GMP nucleotides used. c-di-GMP used in the studies in this example was biochemically synthesized in pure form using a recently described novel synthesis method that produces a pure and high yielding preparation of c-di-GMP diammonium salt (FIG. 5A) (Hayakawa et al., 2003). Before use, the purity and stability of lyophilized c-di-GMP was determined by first resuspending the molecule in 0.9% NaCl creating a 2 mM solution then confirmed by HPLC analysis and ESI-TOF MS spectrometry. The cGMP (guanosine 3′, 5′-cyclic monophosphate, Sigma #G7504) and 5′-GMP (guanosine 5′-monophosphate, TCI, Tokyo Kasei Kogyo Co.) nucleotides were also used. Unless otherwise stated, a 4 mM stock solution of each nucleotide in 0.9% NaCl was prepared and stored at 4° C. until needed.
# c-di-GMP stability tests. Although the term c-di-GMP is used here, c-di-GMP diammonium salt (and not the free diphosphoric acid) was used for these stability tests. (i) In boiling water: A 2 mM solution of c-di-GMP in water was prepared by dissolving 2.42 mg (3.3 μmol) of c-di-GMP in 1.65 mL of ion-exchanged/ion-free water (prepared by passing distilled water through ion-exchange resins). This solution was heated at 100° C. for 10 min and then concentrated under reduced pressure. The resulting residual was subjected to the HPLC analysis under conditions shown below. (ii) In pH 3 solution: From the 2 mM c-di-GMP aqueous solution described above, 500 μl (containing […] of c-di-GMP) was dissolved in 20 mL of 1 mM HCl to produce a solution with pH 3 (confirmed by pH meter). The resulting solution was stirred at room temperature for 1 h and then neutralized by the addition of 200 mL of a 0.1 mM NaOH. Water was evaporated under reduced pressure and the resulting residue was subjected to HPLC analysis. (iii) In pH 10 solution: From the 2 mM c-di-GMP aqueous solution described above, 500 μl (containing […] of c-di-GMP) was dissolved in 200 mL of a 0.1 mM NaOH aqueous solution to produce a solution with pH 10 (confirmed by pH meter). The resulting solution was stirred at room temperature for 1 h. The reaction was quenched by addition of 20 mL of a 1 mM HCl. Concentration of the resulting neutral solution under reduced pressure gave a residual material that was subjected to the HPLC analysis. The HPLC analysis was performed on a Waters 2695 Separation Module with a Waters 2996 Photodiode Array Detector under the following conditions. Column: Nacalai Tesque COSMOSIL 5C18-AR-II column (4.6 mm (diameter)×250 mm (length)); detection: 254 nm of UV ray; temperature: 40° C.; eluent: A=0.9% NaCl (aq), B=a 20:80 mixture of water:acetonitrile; flow rate:1 mL/min; 0-10 min: A 100%; 10-60 min: linear gradient from A100%/B 0% to A 40% to B 60%.
# Salmonela enteritidis = experiment: Biofilm formation in Salmonela enteritidis; assay type: cell-based
# CD-1 mice = experiment: Lethality in mice after oral c-di-GMP; assay type: in vivo; conditions: 50 μL of 200 μM, orally, examined 24 h after treatment
# Method: Safety and toxicity assays. For HeLa cell toxicity studies, various concentrations (0-, 25-, 50-, 100-, 200- and 400 μM) of c-di-GMP were tested in separate wells of chamber slides containing HeLa cells prepared as described above in complete media (in the absence of bacteria). HeLa cell morphology was examined microscopically after 12-, 24- and 48 h incubation. The potential lethality of c-di-GMP administered to mice was also examined. In these studies, adult female CD-1 mice and 5 day old infant mice were inoculated orally with 50 μL of 200 μM c-di-GMP and examined 24 h after c-di-GMP treatment.
structure (smiles),measurement,setting,value
"Nc1nc2c(ncn2C2OC3COP(=O)(O)OC4C(COP(=O)(O)OC3C2O)OC(n2cnc3c(=O)[nH]c(N)nc32)C4O)c(=O)[nH]1 (centres unmarked) [c-di-GMP, 3′,5′-cyclic diguanylic acid]",effect on CFU counts in the mammary gland,[1]; 5 or 50 nanomoles per injection,significant dose-dependent suppressing effect
same,inhibition of S. aureus infection of the mammary gland (CFU counts),"[1]; 50 nanomoles injected into mammary gland at 0 and 4 hr., harvest 10 hrs. post-infection",at least 10 fold
same,coagulase production treated vs untreated,S. aureus DK825 [2],no difference
same,final cell count,"S. aureus DK825 [3]; 200 μM, 24 h static culture, no difference to untreated",6×10^8 CFU/ml
same,effect on growth rate,"S. aureus DK825 [3]; 200 μM, hourly examination up to 8 h",no obvious effect
same,inhibition of cell viability,S. aureus DK825 [3]; as recalled in Example 5 from Example 3,approximately 1 log
same,effect on biofilm formation,"V. cholerae N16961; N16961 wildtype, 24 h static, LB, dose-dependent",increase biofilm formation
same,effect on biofilm formation,V. cholerae N16961; RocS mutant,increased biofilm forming activity
same,solubility,[4],soluble
same,stability in 100 mM ammonium acetate buffer,[4],stable
same,stability in 100 mM phosphate buffer,[4],stable
same,stability in 0.9% NaCl solution (monomeric structure),[4],very stable
same,stability in physiological saline,[4],stable
same,stability of 2 mM stock solution in water,[4],formation of an aggregated product
same,stability of neat (lyophilized) form on storage,[4],formed aggregate molecules
same,effect on biofilm formation,Salmonela enteritidis,induce or enhance biofilm formation
same,lethality,CD-1 mice,no lethal effects were observed
